Experimental data from US6509377B1, “Use of a 2-hydroxy-4-trifluoromethylbenzoic acid derivatives as inhibitors of the activation of the nuclear transcription factor NF-κB” (J. Uriach & Cia, S.A., priority 1999, dated 2003).

Legend:
[1] = tested on: human peripheral blood mononuclear cells (PBMC); assay: Cell viability controls of human PBMC (MTT assay); assay type: cell-based; conditions: Example 3, HTB 1-3 mM with LPS, 3 mM without LPS
Method: Prior to the various treatments, cell viability was determined by the Trypan Blue exclusion assay. Cells were diluted at a concentration of 2.5 million/ml with RPMI medium containing 10% fetal calf serum and were incubated (37° C., 5% CO2) 1 hour in 6-well plates (2 ml/well, 5 million PBMC) without adding any drug (control) or adding HTB (1-3 mM). Next, cells were incubated for further 10 minutes in the presence of 10 μg/ml E.coli lipopolysaccharide (LPS, 026:B6 serotype; Sigma). After incubation, a sample (100 μl) was taken in order to carry out a cell count as well as cell viability controls by measuring the ability of mitochondrial dehydrogenases to convert the soluble tetrazolium salt, MTT the insoluble product formazan (MTT assay). Cells were also incubated with HTB (3 mM) in the absence of LPS. In all cases, cell viability was equal to or higher than 95%.
Cells were diluted at a concentration of 2.5 million/ml with RPMI medium containing 10% fetal calf serum and were incubated (37° C., 5% CO2) 19 hours in 6-well plates (2 ml/well, 5 million PBMC). Incubations were carried out in the presence of 10 μg/ml E.coli lipopolysaccharide (LPS, 026:B6 serotype; Sigma) without adding any drug (control) or adding Triflusal or HTB (0.1-5 mM). Prior to incubations, cell viability controls were performed using the Trypan Blue exclusion assay. […]

MCP-1 = MCP-1 expression induced by immune complexes in THP-1 cells (ELISA); assay type: cell-based, human; conditions: 100 μg/ml A-IgG
Method: Human monocytic THP-1 cells (3×10^6 cells/well) were cultured in plastic dishes in RPMI 1640 culture medium supplemented with penicillin (100 U/ml), streptomycin (100 μg/ml), gentamycin (50 μg/ml), glutamine (2 mM) and 2% heat-inactivated fetal calf serum. Cells were cultured in the presence of HTB (2 and 4 mM) or vehicle and were activated with 100 μg/ml immune complex aggregates (A-IgG). The production of soluble MCP-1 was determined by ELISA using a commercially available kit (R&D Systems Inc.; Minneapolis, Minn.). The detection limit of the system was 5 pg/ml.

[2] = Cell viability of Jurkat cells (EZ4U); assay type: cell-based; conditions: human, Jurkat cells (acute T cell leukemia), read-out: Percentage of cell viability
Method: (§1) Several cell lines obtained from the American Type Culture Collection (ATCC) were cultured at 37° C. and under a 5% CO2 atmosphere. Each cell line was grown in an appropriate culture medium and within the exponential phase (Table I).
(§2) For the cell viability studies 24-well plates were used, where 0.5×10^6 cells/ml (for 24-hour studies), 0.25×10^6 cells/ml (for 48-hour studies) or 0.125×10^6 cells/ml (for 72-hour studies) were incubated. Next, different concentrations of HTB (1-3 mM) were added and cells were incubated for different time periods (37° C., 5% CO2). After incubation, the supernatant from each well was extracted, and cells were washed with culture medium without fetal calf serum. Then, the supernatant was extracted and 200 μl culture medium without fetal calf serum were added to each well. In addition, 20 μl substrate were added to determine cell viability. This method is based on the ability of viable cells to transform the colourless substrate into a coloured substance that is excreted to the supernatant (EZ4U, Biomedica Gmbh.). After incubating cells for 1 hour at 37° C. and 5% CO2, 200 μl supernatant were collected and the absorbance was measured at 450 nm.
(§3) The absorbance was also determined at 620 nm as a measure of the existing non-specific value.

[3] = Cell viability of 1321N1 cells (EZ4U); assay type: cell-based; conditions: human, 1321N1 cells (astrocytoma), read-out: Percentage of cell viability
Method: as §1, §2, §3

NF-κB = NF-κB activation in brain cells of post-natal Long Evans black-hooded rats (NMDA lesion); assay type: in vivo, rat
Method: This study was carried out using post-natal (P9) Long Evans black-hooded rats. Each group consisted of 6 animals subjected to an experimental lesion, plus two control animals of the same age. The experimental lesion was induced by intracortical injection (sensorimotor area) of N-methyl-D-aspartate (NMDA), which causes a marked local neuronal degeneration. Triflusal (30 mg/kg) was administered orally in three doses (from day 7 to 9) every 24 hours. Glial reactivity was induced by NMDA injection at postnatal day 9, one hour after the last triflusal dose. At different times (2-24 h) after this last dose, animals were killed, brains were extracted and cut in a cryostat and sections were processed using immunocytochemical and histochemical techniques to determine NF-κB activation in microglia and astroglia using double staining: NF-κB-lectin and NF-κB-GFPA. In parallel, slices were cut on a vibratome to determine the degree of microglial and astroglial reactivity by histoenzymatic techniques (B. Castellano et al., J.Histochem. Cytochem., 1991, 39(5), 561-568).

In the case of O=C(O)c1ccc(C(F)(F)F)cc1O [HTB, 2-hydroxy-4-trifluoromethylbenzoic acid], the cell viability [1] is reported as no less than 95%, the “inhibition of MCP-1 expression induced by immune complexes” value (MCP-1; 2 mM) is reported as “complete inhibition” and the “inhibition of MCP-1 expression induced by immune complexes” value (MCP-1; 4 mM) is reported as “complete inhibition”. For the same compound, the viability at 0 h, 1 mM ([2]; 1 mM HTB, 0 hours) was 100%, the viability at 2 h, 1 mM ([2]; 1 mM HTB, 2 hours) was 100% and the viability at 5 h, 1 mM ([2]; 1 mM HTB, 5 hours) was 76.8%. It also gave a viability at 24 h, 1 mM ([2]; 1 mM HTB, 24 hours) of 11.3%, a viability at 48 h, 1 mM ([2]; 1 mM HTB, 48 hours) of 3.6% and a viability at 72 h, 1 mM ([2]; 1 mM HTB, 72 hours) of 1.6%. The viability at 0 h, 3 mM ([2]; 3 mM HTB, 0 hours) was 100%, the viability at 2 h, 3 mM ([2]; 3 mM HTB, 2 hours) was 100% and the viability at 5 h, 3 mM ([2]; 3 mM HTB, 5 hours) was 62.6%. The viability at 24 h, 3 mM ([2]; 3 mM HTB, 24 hours) was 6.2%, the viability at 48 h, 3 mM ([2]; 3 mM HTB, 48 hours) was 5.4% and the viability at 0 h, 1 mM ([3]; 1 mM HTB, 0 hours) was 100%. It also gave a viability at 2 h, 1 mM ([3]; 1 mM HTB, 2 hours) of 99.7%, a viability at 5 h, 1 mM ([3]; 1 mM HTB, 5 hours) of 94.2% and a viability at 24 h, 1 mM ([3]; 1 mM HTB, 24 hours) of 87.5%. The viability at 0 h, 3 mM ([3]; 3 mM HTB, 0 hours) was 100%, the viability at 2 h, 3 mM ([3]; 3 mM HTB, 2 hours) was 85.3% and the viability at 5 h, 3 mM ([3]; 3 mM HTB, 5 hours) was 67.2%. For the same compound, the viability at 24 h, 3 mM ([3]; 3 mM HTB, 24 hours) was 62.2% and the viability at 48 h, 3 mM ([3]; 3 mM HTB, 48 hours) was 17.8%.
For CC(=O)Oc1cc(C(F)(F)F)ccc1C(=O)O [triflusal, 2-Acetyloxy-4-trifluoromethylbenzoic acid, reference compound], the “NF-κB activation in astroglial and microglial cells after NMDA excitotoxic lesion” value (NF-κB; 30 mg/kg p.o. pretreatment) was “completely inhibited” and the “basal (constitutive) NF-κB activation in cortical neurons of control animals” value (NF-κB; triflusal 30 mg/kg orally, three doses every 24 hours) was “inhibited”.
